Source: ChEMBL document CHEMBL1152465, “Comparative evaluation of the inhibitory activities of a series of pyrimidinedione congeners that inhibit human immunodeficiency virus types 1 and 2” (Antimicrob Agents Chemother, 2008)
Activity calls are given as the source filed them.

Experiments:
[1] = Therapeutic index, ratio of TC50 human HeLa cells expressing CD4-LTR to EC50 for HIV1 entry inhibition in human HeLa cells expressing CD4-LTR; format: cell-based; settings: read-out: TI
[2] = system: Human immunodeficiency virus 2; assay: Antiviral activity against HIV2 ROD infected in human CEM-SS cells assessed as inhibition of virus-induced cytopathic effect by XTT assay; format: functional, organism-based, ISOLATE ROD
[3] = system: Human immunodeficiency virus 1; assay: Antiviral activity against HIV1 RF infected in human CEM-SS cells assessed as inhibition of virus-induced cytopathic effect by XTT assay; format: functional, organism-based; settings: Human immunodeficiency virus 1, RF
[4] = biological target: Human immunodeficiency virus type 1 reverse transcriptase (Human immunodeficiency virus 1, UniProt Q72547, K103N); assay: Inhibition of HIV1 reverse transcriptase K103N mutant assessed as 32P-labeled GMP incorporation into nascent DNA strand
[5] = biological target: Human immunodeficiency virus type 1 reverse transcriptase (Human immunodeficiency virus 1, UniProt Q72547); assay: Inhibition of wild type HIV1 reverse transcriptase assessed as 32P-labeled GMP incorporation into nascent DNA strand
[6] = Therapeutic index, ratio of TC50 for human CEM-SS cells to EC50 for HIV2 ROD infected in human CEM-SS cells; format: cell-based; settings: for selectivity ratio: CEM-SS cells, read-out: TI; for TI: cem-ss
[7] = Cytotoxicity against human CEM-SS cells by XTT assay; format: cell-based; settings: read-out: TC50 (the source's name)
[8] = Therapeutic index, ratio of TC50 for human CEM-SS cells to EC50 for HIV1 RF infected in human CEM-SS cells; format: cell-based; settings: read-out: TI
[9] = system: Human immunodeficiency virus 2; assay: Antiviral activity against HIV2 assessed as inhibition of viral single round replication at early time point; format: functional, organism-based
[10] = system: Human immunodeficiency virus 2; assay: Inhibition of HIV2 reverse transcriptase assessed as 32P-labeled GMP incorporation into nascent DNA strand at highest concentration
[11] = system: Human immunodeficiency virus 1; assay: Antiviral activity against HIV1 infected in human CEM-SS cells assessed as inhibition of viral replication and virus-induced cytopathic effect by dose-response curve analysis; format: functional; settings: Human immunodeficiency virus 1, CEM-SS
[12] = system: Human immunodeficiency virus 2; assay: Inhibition of HIV2 reverse transcriptase
[13] = system: Human immunodeficiency virus 2; assay: Antiviral activity against HIV2 assessed as inhibition of viral replication treated at time points after viral entry into host cells; format: functional, organism-based
[14] = system: Human immunodeficiency virus 1; assay: Antiviral activity against HIV1 infected in human HeLa cells expressing CD4-LTR assessed as inhibition of viral entry-related beta galactosidase expression treated for 2 hrs followed by drug wash out measured after 48 hrs by MAGI assay; format: functional, organism-based; settings: Human immunodeficiency virus 1, HeLa
[15] = Cytotoxicity against human HeLa cells expressing CD4-LTR by XTT assay; format: cell-based; settings: read-out: TC50 (the source's name)
[16] = Human immunodeficiency virus 2, ISOLATE ROD, CEM-SS, read-out: EC50

Row | Structure (SMILES) | selectivity ratio [1] | EC50 [2, 16] | EC50 [3] | IC50 [4] | IC50 [5] | selectivity ratio [6] | CC50 [7] | selectivity ratio [8] | Activity [9] | Activity [10] | EC99 [11] | Activity [12] | Activity [13] | EC50 [14] | CC50 [15] | EC50 ([2]; cem-ss) | TI [6]
1 | CCc1c(Sc2cc(C)cc(C)c2)n(CC2=CCCC2)c(=O)[nH]c1=O | 104000 | 2 µM | 0.056 µM | 66.8 µM | 0.138 µM | 451 | 887 µM | 15800 | Active | inactive | 1 µM | inactive | inactive | 0.009 µM | 887 µM |  | 
2 | Cc1cc(C)cc(Sc2c(C(C)C)c(=O)[nH]c(=O)n2CC2CCCC2)c1 | 39 |  | 0.011 µM | > 268 µM | 0.129 µM |  | 7 µM | 1260 | Active | inactive | 1 µM | inactive | inactive | 0.27 µM | 10.6 µM | Not Active | Not Active
3 | Cc1cc(C)cc(C(=O)c2c(C(C)C)c(=O)[nH]c(=O)n2CCC2CC=CC2)c1 | 30 | 0.6 µM | 0.015 µM | 1.7 µM | 0.011 µM | 23 | 13.9 µM | 2390 | Active | inactive | 1 µM | inactive | inactive | 0.82 µM | 24.9 µM |  | 
4 | CCc1c(Sc2cc(C)cc(C)c2)n(CC2CCCCC2)c(=O)[nH]c1=O | 1320 | 26.9 µM | 0.134 µM | > 268 µM | 0.152 µM | 2.7 | 71.7 µM | 534 | Active | inactive | 1 µM | inactive | inactive | 0.05 µM | 71.7 µM |  | 
5 | CCc1c(Sc2cc(C)cc(C)c2)n(CC2CC2)c(=O)[nH]c1=O | 1580 | 0.1 µM | 0.0008 µM | 0.257 µM | 0.018 µM | 62.5 | 7.6 µM | 25500 | Active | inactive | 1 µM | inactive | inactive | 0.009 µM | 14.4 µM |  | 
6 | Cc1cc(C)cc(C(=O)c2c(C(C)C)c(=O)[nH]c(=O)n2CCC2CCCC2)c1 | 1460 |  | 0.02 µM | 2.6 µM | 0.065 µM |  | 17.3 µM | 1180 | Active | inactive | 1 µM | inactive | inactive | 0.014 µM | 20.6 µM | Not Active | Not Active
7 | Cc1cc(C)cc(C(=O)c2cc(=O)[nH]c(=O)n2CC2CC=CC2)c1 | 124 | 30.9 µM | 2.16 µM | > 308 µM | 119 µM | 2.8 | 87.3 µM | 40 | Active | inactive | 1 µM | inactive | inactive | 0.71 µM | 87.3 µM |  | 
8 | CCc1c(C(=O)c2cc(C)cc(C)c2)n(CC2CCCCC2)c(=O)[nH]c1=O | 20200 | 3 µM | 0.054 µM | > 271 µM | 0.173 µM | > 362 | 1100 µM | 20300 | Active | inactive | 1 µM | inactive | inactive | 0.05 µM | 1090 µM |  | 
